Broadly, the Ki is the equilibrium dissociation constant of an inhibitor or competing ligand from its target. A higher Ki goes with weaker binding.

The structures appear in SMILES notation. “Also recorded” adds a separate entry of the source. Some results are limits rather than exact numbers.

Experimental findings from patent publication US9144573B2, “Prostaglandin transporter inhibitors” (Albert Einstein College of Medicine of Yeshiva University, priority 2006, dated 2015) are described below.

In series [1] the target is T1, prostaglandin transporter (PGT) (Rattus norvegicus, UniProt Q00910).
T1 construct: GFP; expressed in transfected cells
Briefly: PGE2 uptake by MDCK cells stably expressing PGT. Type of series: cell-based. Particulars: for inhibition at 5 µM: MDCK, read-out: % Inhib. at 5 μM. On the procedure: MDCK or 3T3 cells were seeded at 15-20% confluence on 24-well plates. The day on which the cells were seeded was considered day 1. PGE2 uptake experiments were conducted on day 4. All of the PGE2 uptake experiments were conducted at room temperature. On day 4, cells were washed twice with Waymouth buffer (135 mM NaCl, 13 mM H-Hepes, 13 mM Na-Hepes, 2.5 mM CaCl2, 1.2 mM MgCl2, 0.8 mM MgSO4, 5 mM KCl, and 28 mM D-glucose). Then 200 μL of Waymouth buffer containing [^3H]PGE2 was added to each well. At the designated time, the uptake of [^3H]PGE2 was stopped by aspiration of uptake buffer; this was followed by immediate washing twice with 500 μL of chilled Waymouth buffer. Cells were then lysed with 100 μL lysis buffer containing 0.25% SDS and 0.05 N NaOH. 1.5 mL of scintillation solution was added to each well, and intracellular [^3H]PGE2 was counted by MicroBeta Counter.
For preliminary screening of the compounds, 25 μL of Waymouth buffer containing small organic compounds were added to each well; this was immediately followed by the addition of 175 μL of Waymouth buffer containing [^3H]PGE2. In each well, the total volume of uptake medium was 200 μL. Organic compounds were first dissolved in DMSO and then diluted in Waymouth buffer. The percent inhibition of [^3H]PGE2 uptake by compounds was calculated as [(uptakevehicle−uptakeinhibitor)÷(uptakevehicle)]×100.
The initial velocities at various initial extracellular concentrations of PGE2 were determined from the PGE2 uptake in the first 2 minutes; these were linear over the time course of PGE2 uptake. Ki values were obtained by curve fitting the reciprocal of initial velocities of PGE2 uptake versus the reciprocal of extracellular PGE2 concentrations at various concentrations of the inhibitors. At low PGE2 concentrations, the extracellular concentrations were taken as ^3H labeled PGE2, which has a specific activity of 500 μCi/mol. At high concentrations of PGE2, a mixture of ^3H labeled and unlabeled PGE2 was made to a final specific activity of 25 μCi/mol.

A further series concerns MDCK cells. It is filed as cell-based, Canine. How it is done:
We used TGBz T34 to further isolate the efflux process of PGE2. […] The intracellular concentrations of PGE2 at different time points were calculated by dividing the total amount of intracellular PGE2 on the dish by the total volume of cells, based on cell number counts and published individual cell volume (Schneider et al., 2000; Hill et al., 2004). Since the addition of inhibitor involved removing extracellular tracer PGE2, the intracellular PGE2 concentration at the point of inhibitor addition approximates the outwardly-directed PGE2 gradient.
This linearity held true even when the intracellular PGE2 concentration was extended to almost 800 nM, i.e. 10 fold the Km of PGT for PGE2 (data not shown). From the slope of the relationship, we generated a range of permeability coefficients for PGE2 efflux of 1.2 to 5.3×10^−6 cm/sec, based on the range of MDCK cell volumes reported in the literature (Schneider et al., 2000; Hill et al., 2004). […] The ratio of the influx-to-efflux permeability coefficients was thus in the range 2.7 to 117.

[2] abbreviates: Table 1, PGE2 uptake, MDCK cells expressing PGT.

Consider `[N-]=[N+]=NCCOCCOCCNC(=O)c1ccc(Nc2nc(NCCOCCOCCNC(=O)c3ccccc3)nc(Nc3ccc(F)cc3)n2)cc1` [T25A], for which the inhibition at 5 µM in series [1] is 82%. The molecule also came in with a Ki in series [1] (Table 2) of 3.9 µM.

Take `[N-]=[N+]=NCCOCCOCCNC(=O)c1ccc(Nc2nc(NCCOCCOCCNC(=O)c3ccccc3)nc(NCc3ccccc3)n2)cc1` [T14A]: the inhibition at 5 µM in series [1] worked out at 56%.

For the molecule `CC(C)CCNc1nc(NCCOCCOCCNC(=O)c2ccccc2)nc(Nc2ccc(C(=O)NCCOCCOCCN=[N+]=[N-])cc2)n1` [T08A], the inhibition at 5 µM in series [1] was 64%.

Take `CCCCCCCNc1nc(NCCOCCOCCNC(=O)c2ccccc2)nc(Nc2ccc(C(=O)NCCOCCOCCN=[N+]=[N-])cc2)n1` [T07A]: in series [1], the inhibition at 5 µM was 74%.

`[N-]=[N+]=NCCOCCOCCNC(=O)c1ccc(Nc2nc(NCCOCCOCCNC(=O)c3ccccc3)nc(NCCc3ccc(O)cc3)n2)cc1` [T41]: the inhibition at 5 µM in series [1] was determined as 65%. The values for the Ki in series [1] (setting [2]) and in series [1] (Table 2) were 6.2 ± 0.7 µM and 6.2 µM, respectively.

For `CCCNc1nc(NCCOCCOCCNC(=O)c2ccccc2)nc(Nc2ccc(C(=O)NCCOCCOCCN=[N+]=[N-])cc2)n1` [T03A], in series [1], the inhibition at 5 µM came out at 54%.

On to `CCCCC[C@H](O)/C=C/[C@H]1[C@H](O)CC(=O)[C@@H]1C/C=C\CCCC(=O)O` [PGE2, prostaglandin E2], for which, in the series on MDCK cells, the “permeability coefficient for PGE2 efflux” value was 1.2-5.3 ×10^−6 cm/sec, the “permeability coefficient for PGE2 influx (by simple diffusion)” value was 0.45 ×10⁻⁶ cm/s and the “ratio of the influx-to-efflux permeability coefficients” value is 2.7-117.

Consider `[N-]=[N+]=NCCOCCOCCNC(=O)c1ccc(Nc2nc(NCCOCCOCCNC(=O)c3ccccc3)nc(NCCc3ccccc3)n2)cc1` [T34], for which the Ki amounted to 1.22 µM in series [1] (0 min pre-incubation, separate experiments); 1.63 µM in series [1] (10 min pre-incubation); 1.41 µM in series [1] (20 min pre-incubation); 3.7 ± 0.2 µM in series [1] (setting [2]); 3.7 µM in series [1] (Table 2); 3.7 ± 0.2 µM in series [1] (double-reciprocal plots, PGE2 varied at 0, 3, 6 μM inhibitor). In addition, the “intracellular PGE2 after addition of inhibitor at peak level” value in series [1] (25 μM added at 9 minutes) is recorded as “rapid depletion of intracellular PGE2”. In addition, the “time for intracellular PGE2 to fall to baseline” value in series [1] (25 μM added at peak (9 minutes)) was ≤ 5 min. Moreover, the “inhibition of PGE2 transport by PGT” value in series [1] (25 μM, added at the beginning of uptake, listed as TGBz T34) is reported as “overshoot phenomenon completely disappeared; also recorded: full inhibition”. The inhibition at 5 µM in series [1] was 84%. In addition, the mode of inhibition result in series [1] (double reciprocal analysis) is given as “competitive inhibitor”.

Turning to `[N-]=[N+]=NCCOCCOCCNC(=O)c1ccc(Nc2nc(NCCOCCOCCNC(=O)c3ccccc3)nc(NCCc3ccc(F)cc3)n2)cc1` [T18A], in series [1], the inhibition at 5 µM was found to be 76%.

As to `[N-]=[N+]=NCCOCCOCCNC(=O)c1ccc(Nc2nc(NCCCCc3ccccc3)nc(NCCOCCOCCNC(=O)c3ccccc3)n2)cc1` [T22A], in series [1], the inhibition at 5 µM turned out to be 72%.

`[N-]=[N+]=NCCOCCOCCNC(=O)c1ccc(Nc2nc(NCCOCCOCCNC(=O)c3ccccc3)nc(Nc3ccccc3)n2)cc1` [T28A]: the inhibition at 5 µM in series [1] is 84%. The molecule also returned a Ki in series [1] (Table 2) of 3.6 µM.

For the molecule `[N-]=[N+]=NCCOCCOCCNC(=O)c1ccc(Nc2nc(NCCCc3ccccc3)nc(NCCOCCOCCNC(=O)c3ccccc3)n2)cc1` [T21A], the inhibition at 5 µM in series [1] was found to be 72%.
